Experimental data as given in PMC11325505, “Nitrogen-Containing Flavonoids—Preparation and Biological Activity” (ACS Omega, 2024).
Values after ≈ are worked out from the molar mass of the structure shown.

Columns and labels:
MRSA 3596 = assay: Mode of antimicrobial action with erythromycin or gentamicin, ermA- and aadD-positive strain; assay type: cell-based, S. aureus; conditions: for MIC, Gentamicin [1 mg/L] yes / MIC: MRSA 3596 (aadD); for MIC, Gentamicin [1 mg/L] yes: with gentamicin 1 mg/L; for MIC, erythromycin [1 mg/L] yes / MIC, erythromycin [1 mg/L] no: MRSA 3596 (ermA); for MIC, erythromycin [1 mg/L] yes: with erythromycin 1 mg/L; for MIC, erythromycin [1 mg/L] no: without erythromycin, Table 4; for MIC: Staphylococcus aureus, 24 h, read-out: MIC, Gentamicin [1 mg/L] no, without gentamicin, Table S6
Excerpt: Erythromycin is a macrolide antibiotic that inhibits proteosynthesis by binding to the 50S subunit of the ribosome. In Staphylococcus species, resistance to erythromycin is associated with the presence of methyltransferases (encoded by erm genes) that alter the ribosomal target site. Another typical mechanism of resistance to erythromycin is the presence of an ATP-dependent efflux pump encoded by the msr(A) gene or a major facilitator superfamily (MFS) pump encoded by the lmrS gene. Both efflux pumps reduce the concentration of erythromycin in the cell below the therapeutic dose by transporting it across the membrane to the extracellular space. Another erythromycin resistance gene is the mph(C) gene, the product of which is a phosphotransferase that alters the structure of macrolide antibiotics. To elucidate the mechanism of erythromycin resistance modulation in S. aureus, further tests were performed with the strains MRSA 331 and MRSA 3596, which inactivate erythromycin via a single mechanism (ermC and ermA, respectively). […] Therefore, if the activity was not strain-specific, it would be necessary to consider the effect of the derivatives on this pump (Table 3).
(§1) Among the mechanisms of resistance to gentamicin previously described in S. aureus, the presence of enzymes that alter the structure of aminoglycosides is crucial. These enzymes can transfer nucleotides, phosphates, or acetyls to various −OH or −NH2 groups of gentamicin, preventing its subsequent interaction with the cellular target, i.e., the 30S ribosomal subunit. The bifunctional aminoglycoside-modifying enzyme with acetylation and phosphotransferase activities encoded by the gene aac(6’)/aph(2’), 4′,4″ adenyltransferase encoded by the aadD gene, and aminoglycoside O-phosphotransferase encoded by the gene aph(3′) are the most important.[37] […] For this reason, further testing continued using strains MRSA 3596 and MRSA 1584, which inactivate gentamicin only by a single mechanism (aadD and aac(6’)-aph(2’’), respectively).
(§2) Sensitization of multidrug-resistant clinical bacterial strains was performed according to ref[15]. Antibiotic cutoff concentration was chosen according to the European Committee on Antimicrobial Susceptibility Testing (EUCAST, Clinical breakpoints–bacteria, ver. 11.0). The 200 μM concentration of the derivatives was chosen as the highest test concentration. The absorbance detected at 600 nm was then used to estimate the number of viable cells after 24 h of incubation at 37 °C and 120 rpm.
(§3) Experiments were performed with the respective number of replicates indicated in each figure/table. MIC was determined as IC70. Both IC70 and IC50 values were calculated using the following nonlinear regression in the software GraphPad Prism: […]

S. aureus MRSA 9 = assay: Antibacterial activity, multidrug-resistant strain; assay type: cell-based; conditions: Staphylococcus aureus, MRSA; multidrug-resistant strain; three repetitions ± SEM
Protocol: To evaluate the ability to modulate bacterial resistance, the tested flavonoids themselves cannot exert antimicrobial activity; therefore, the nontoxic concentration was used, as indicated in Table S5. Clinically relevant antibiotics were selected at breakpoint concentrations for susceptibility testing according to the European Committee on Antimicrobial Susceptibility Testing (EUCAST, version 11.0). […] Flavonoids and their derivatives (from 1 μM to the highest nontoxic concentration) were used in combination with the breakpoint concentration of the antibiotics. After coincubation, the minimum inhibitory concentration (MIC) of flavonoids inhibiting the visible growth of bacteria was determined (Table 2).
as §2, §3

RAW 264.7 cells = assay: Cellular antioxidant activity (CAA); assay type: cell-based, Murine; conditions: for IC50: average of four repetitions ± standard error of the mean
Protocol: To evaluate the antioxidant activity of the prepared derivatives and the respective parent compounds, cellular antioxidant activity (CAA) was measured in macrophages. Compared to other in vitro antioxidant assays, this method provides partial information about the uptake and metabolism of the compounds, because, in this assay, they must first enter the cell to exert antioxidant activity.[31] […] Derivatization of quercetin at C-8 with 4-fluoroaniline (5) increased the antioxidant activity of quercetin by 1.7-fold. […] The concentration of these derivatives required to halve the cellular radicals decreased 1.5-fold compared to luteolin.
Cellular antioxidant capacity was evaluated as previously described.[31],[39] Briefly, 100 μL of RAW 264.7 cells with a density corresponding to 1 × 10^6 cells/mL were split into 96-well plates. After 24 h, cells were washed with PBS, and DMEM supplemented with DCFH-DA (0.0125 mg/mL) was added to each well together with the tested samples in the concentration range of 1.5–200 μM. After 1 h incubation in a CO2 incubator, the medium was replaced with AAPH solution (0.16 mg/mL in PBS), and fluorescence was immediately recorded (ex./em. 485/540 nm) for 2 h in 5 min intervals.

[1] = test system: tumor necrosis factor (TNF-α) production by RAW 264.7 stimulated by LPS; assay: Anti-inflammatory activity: TNF-α production by LPS-stimulated macrophages; assay type: cell-based, Murine; conditions: Mus musculus, RAW264.7; LPS-stimulated RAW 264.7; average of four repetitions ± SEM; read-out: TNFα production IC50
Protocol: The anti-inflammatory activity of flavonoids was evaluated as their ability to decrease the production of signaling molecules that mediate inflammation, such as nitric oxide (NO), tumor necrosis factor (TNF-α), and interleukin 6 (IL-6), in LPS-stimulated macrophages.
The anti-inflammatory activity of the tested flavonoids was determined as the ability to reduce the production of nitric oxide (NO), tumor necrosis factor (TNF-α), and interleukin 6 (IL-6) by RAW 264.7 stimulated by LPS, as previously described.[39],[40] Briefly, 1 × 10^6 cells/mL was seeded into the 96-well plate (100 μL/well). After 48 h, LPS (100 ng/mL) and the samples (3–100 μM) were added to the MEM medium. After 24 h, the medium was mixed with Griess reagent (0.04 g/mL) at a 1:1 ratio. The absorbance was measured after 15 min at 540 nm. Cell viability was determined using the resazurin assay.
To determine TNF-α levels, cells were precultivated with the tested compounds for 24 h. After 2 h of incubation with LPS, the medium was diluted 1:10 with ELISA diluent. To determine the level of IL-6, cells were cultivated for 6 h with LPS and the tested compounds. Cytokine production was determined using an uncoated ELISA performed according to the manufacturer’s instructions.

MRSA 1584 = assay: Mode of antimicrobial action with gentamicin, aac(6')/aph(2')-positive strain; assay type: cell-based, Staphylococcus aureus; conditions: for effect (mode of action with gentamicin) / FIC (Fractional Inhibitory Concentration Index) / MIC: MRSA 1584; for MIC, Gentamicin [1 mg/L] yes: MRSA 1584 (aac(6')/aph(2')), with gentamicin 1 mg/L; for FIC (Fractional Inhibitory Concentration Index): with gentamicin; for MIC: Staphylococcus aureus, 24 h, read-out: MIC, Gentamicin [1 mg/L] no, without gentamicin
Excerpt: as §1, §2, §3

[2] = Mus musculus, RAW264.7, macrophages RAW 264.7

Compound	effect (mode of action with erythromycin) (MRSA 3596; MRSA 3596)	MIC, Gentamicin [1 mg/L] yes (MRSA 3596) [µM]	MIC, erythromycin [1 mg/L] yes (MRSA 3596) [µM]	MIC, erythromycin [1 mg/L] no (MRSA 3596) [µM]	FIC (Fractional Inhibitory Concentration Index) (MRSA 3596; MRSA 3596, with erythromycin)	MIC (MRSA 3596) [µM]	IC50 (S. aureus MRSA 9) [µM]	change of antioxidant activity compared to the parent compound, in words (RAW 264.7 cells; CAA in macrophages)	IC50 (RAW 264.7 cells; [2]) [µM]	IC50 [1] [µM]	effect (mode of action with gentamicin) (MRSA 1584)	MIC, Gentamicin [1 mg/L] yes (MRSA 1584) [µM]	FIC (Fractional Inhibitory Concentration Index) (MRSA 1584)	MIC (MRSA 1584) [µM]	effect (mode of action with gentamicin) (MRSA 3596; MRSA 3596)	effect (mode of action with erythromycin) (MRSA 3596; MRSA 3596, listed as luteolin)	FIC (Fractional Inhibitory Concentration Index) (MRSA 3596; MRSA 3596, with gentamicin)	IC50 (RAW 264.7 cells; macrophages RAW 264.7) [µM]
O=c1cc(-c2ccc(O)c(O)c2)oc2c(Nc3ccc(C(F)(F)F)cc3)c(O)cc(O)c12 [compound 14, 2-(3,4-Dihydroxyphenyl)-8-(4-(trifluoromethyl)anilino)-5,7-dihydroxy-4H–1-benzopyran-4-one]	antagonism (≥2 indicates antagonism)	> 200	29.9 ± 1.4 (≈ 13.3 µg/mL)	14.4 ± 0.1 (≈ 6.41 µg/mL)	2.07 ± 0.11	> 200	24 ± 0.1	significantly decreased the antioxidant activity	> 12.5	> 25	indifferent (> 1 to < 2 indicates indifference)	26.1 ± 1.6 (≈ 11.6 µg/mL)	1.71 ± 0.26	15.3 ± 1.3 (≈ 6.81 µg/mL)	–	–	–	–
O=c1cc(-c2ccc(O)c(O)c2)oc2c(Nc3ccc(F)cc3)c(O)cc(O)c12 [compound 11, 2-(3,4-Dihydroxyphenyl)-8-(4-fluoroanilino)-5,7-dihydroxy-4H–1-benzopyran-4-one]	–	> 200	28.0 ± 0.5 (≈ 11.1 µg/mL)	32.9 ± 0.6 (≈ 13 µg/mL)	0.85 ± 0.03	> 200	38 ± 1.2	–	2.9 ± 0.2	28.4 ± 0.2	additive (> 0.5-1 indicates additive effects)	15.7 ± 0.9 (≈ 6.21 µg/mL)	0.65 ± 0.06	24.1 ± 0.7 (≈ 9.53 µg/mL)	–	–	–	–
O=c1cc(-c2ccc(O)c(O)c2)oc2cc(O)cc(O)c12 [compound 10, luteolin, reference compound]	synergy (Fractional Inhibitory Concentration Index (FIC) < 0.5 indicates synergism)	6.7 ± 0.1 (≈ 1.92 µg/mL)	14.3 ± 0.9 (≈ 4.09 µg/mL)	51.1 ± 1.3 (≈ 14.6 µg/mL)	0.28 ± 0.02	51.1 ± 1.3 (≈ 14.6 µg/mL)	> 200	–	4.5 ± 0.5	25.9 ± 0.3	additive (> 0.5-1 indicates additive effects)	7.6 ± 1.0 (≈ 2.18 µg/mL)	0.50 ± 0.11	15.2 ± 1.4 (≈ 4.35 µg/mL)	synergy (Fractional Inhibitory Concentration Index (FIC) < 0.5 indicates synergism)	synergistic activity	0.13 ± 0.01	4.48
